#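 Briefly, cells in 96-well plates were exposed to five compound concentrations for 48 h, and endpoints were estimated by linear interpolation. GI50 is the concentration that inhibits growth by half.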 The source made the active and inactive calls. Rule as the data show it: active = GI50 up to about 1.1 µM and inactive = higher.
# How the values were obtained:
# Test in all cases: NCI anticancer screen, dose series, 48 h
# 786-0 = test system: 786-0
# A549 = test system: A549
# ACHN = test system: ACHN
# CAKI-1 = test system: CAKI-1
# EKVX = test system: EKVX
# HCC 2998 = test system: HCC 2998
# HCT-116 = test system: HCT-116
# IGROV-1 = test system: IGROV-1
# LOX IMVI = test system: LOX IMVI
# MDA-MB-435 = test system: MDA-MB-435
# MOLT-4 = test system: MOLT-4
# NCI/ADR-RES = test system: NCI/ADR-RES
# OVCAR-4 = test system: OVCAR-4
# OVCAR-8 = test system: OVCAR-8
# SF-539 = test system: SF-539
# SK-MEL-2 = test system: SK-MEL-2
# SN12C = test system: SN12C
# SW-620 = test system: SW-620
# T47D = test system: T47D
# U-251 = test system: U-251
Compound,GI50 (786-0),GI50 (A549),GI50 (ACHN),GI50 (CAKI-1),GI50 (EKVX),GI50 (HCC 2998),GI50 (HCT-116),GI50 (IGROV-1),GI50 (LOX IMVI),GI50 (MDA-MB-435),GI50 (MOLT-4),GI50 (NCI/ADR-RES),GI50 (OVCAR-4),GI50 (OVCAR-8),GI50 (SF-539),GI50 (SK-MEL-2),GI50 (SN12C),GI50 (SW-620),GI50 (T47D),GI50 (U-251)
COc1cc(/C=C/C(=O)OC[C@H](Br)[C@H](OC(C)=O)c2ccc3c(c2)OCO3)cc(OC)c1OC,> 100 µM (inactive),92.7 µM (inactive),> 100 µM (inactive),> 100 µM (inactive),> 100 µM (inactive),80.4 µM (inactive),> 100 µM (inactive),> 100 µM (inactive),> 100 µM (inactive),> 100 µM (inactive),7.69 µM (inactive),57.7 µM (inactive),> 100 µM (inactive),> 100 µM (inactive),> 100 µM (inactive),> 100 µM (inactive),> 100 µM (inactive),> 100 µM (inactive),52.5 µM (inactive),> 100 µM (inactive)
O=C1C=Cc2c(I)sc(I)c21,10.3 µM (inactive),26.2 µM (inactive),36.6 µM (inactive),18.7 µM (inactive),26.1 µM (inactive),18.4 µM (inactive),15.7 µM (inactive),15.9 µM (inactive),12.1 µM (inactive),19.4 µM (inactive),12 µM (inactive),23.3 µM (inactive),20 µM (inactive),18.9 µM (inactive),25.6 µM (inactive),20.1 µM (inactive),19.5 µM (inactive),13.4 µM (inactive),18.1 µM (inactive),17 µM (inactive)
COc1cccc(C2c3cc4c(cc3OC(C)(N3CCCC3)C2C)OCO4)c1 (stereo not given),26.1 µM (inactive),7.55 µM (inactive),17.6 µM (inactive),17.1 µM (inactive),24.6 µM (inactive),13.1 µM (inactive),7.62 µM (inactive),8.38 µM (inactive),10.6 µM (inactive),4.19 µM (inactive),51.3 µM (inactive),6.9 µM (inactive),14.3 µM (inactive),20.9 µM (inactive),13.9 µM (inactive),2.45 µM (inactive),17.2 µM (inactive),6.55 µM (inactive),11.2 µM (inactive),7.59 µM (inactive)
O=C1C(SCCO)=C(SCCO)C(=O)c2ccccc21,2.04 µM (inactive),1.29 µM (inactive),0.807 µM (active),2.08 µM (inactive),1.6 µM (inactive),1.74 µM (inactive),1.86 µM (inactive),0.467 µM (active),0.222 µM (active),0.186 µM (active),0.0794 µM (active),0.94 µM (active),0.252 µM (active),0.579 µM (active),0.745 µM (active),2 µM (inactive),1.6 µM (inactive),0.695 µM (active),1.22 µM (inactive),0.711 µM (active)
COc1cccc2c3ccccc3c3nc[nH]c3c12,18.1 µM (inactive),36.2 µM (inactive),44.2 µM (inactive),48.4 µM (inactive),> 48.3 µM (inactive),23.9 µM (inactive),29.8 µM (inactive),41.4 µM (inactive),33.8 µM (inactive),31.6 µM (inactive),9.08 µM (inactive),46.3 µM (inactive),> 88.7 µM (inactive),> 100 µM (inactive),18.2 µM (inactive),58.3 µM (inactive),> 66.5 µM (inactive),22.5 µM (inactive),> 50.4 µM (inactive),14.7 µM (inactive)
O=c1sc2c(s1)SSSSS2,> 50 µM (inactive),> 50 µM (inactive),> 50 µM (inactive),> 50 µM (inactive),> 50 µM (inactive),> 50 µM (inactive),> 50 µM (inactive),> 50 µM (inactive),30.5 µM (inactive),> 50 µM (inactive),11.8 µM (inactive),> 50 µM (inactive),> 50 µM (inactive),> 50 µM (inactive),20.2 µM (inactive),> 50 µM (inactive),> 50 µM (inactive),> 50 µM (inactive),> 50 µM (inactive),> 50 µM (inactive)
COc1cc2c(cc1OC)C(=O)N(c1ccc(O)cc1)C2=O,> 100 µM (inactive),> 100 µM (inactive),> 100 µM (inactive),> 100 µM (inactive),> 100 µM (inactive),> 100 µM (inactive),> 100 µM (inactive),> 100 µM (inactive),> 100 µM (inactive),> 100 µM (inactive),> 100 µM (inactive),> 100 µM (inactive),> 100 µM (inactive),> 100 µM (inactive),> 100 µM (inactive),> 100 µM (inactive),> 100 µM (inactive),> 100 µM (inactive),> 100 µM (inactive),> 100 µM (inactive)
COc1ccccc1NC(=O)CC(=O)NN,> 100 µM (inactive),> 100 µM (inactive),> 100 µM (inactive),> 100 µM (inactive),> 100 µM (inactive),11.9 µM (inactive),> 100 µM (inactive),> 100 µM (inactive),> 100 µM (inactive),> 100 µM (inactive),> 100 µM (inactive),9.77 µM (inactive),> 100 µM (inactive),> 100 µM (inactive),> 100 µM (inactive),> 100 µM (inactive),> 100 µM (inactive),> 100 µM (inactive),> 100 µM (inactive),> 100 µM (inactive)
CCN1CCN(c2nc3ccccc3c3c2CCOc2ccccc2-3)CC1,22.3 µM (inactive),45.8 µM (inactive),> 61.2 µM (inactive),25.1 µM (inactive),> 100 µM (inactive),18.6 µM (inactive),29.3 µM (inactive),22.2 µM (inactive),16.5 µM (inactive),24.9 µM (inactive),10.6 µM (inactive),> 46.3 µM (inactive),> 53.2 µM (inactive),> 45.1 µM (inactive),> 46.2 µM (inactive),27.4 µM (inactive),> 55.3 µM (inactive),24.9 µM (inactive),35.5 µM (inactive),32.9 µM (inactive)
CC(C)NC(NC(C)C)=C(S(=O)(=O)C(F)(F)C(F)(F)C(F)(F)C(F)(F)F)S(=O)(=O)C(F)(F)C(F)(F)C(F)(F)C(F)(F)F,> 100 µM (inactive),> 100 µM (inactive),> 100 µM (inactive),> 100 µM (inactive),> 100 µM (inactive),> 100 µM (inactive),> 100 µM (inactive),> 100 µM (inactive),> 100 µM (inactive),> 100 µM (inactive),> 100 µM (inactive),> 100 µM (inactive),> 100 µM (inactive),> 100 µM (inactive),> 100 µM (inactive),> 100 µM (inactive),> 100 µM (inactive),> 100 µM (inactive),> 100 µM (inactive),> 100 µM (inactive)

# From ChEMBL document CHEMBL1201862, “PubChem BioAssay data set” (2004)
